Assay results from patent US11040018B2, “Formulation for inhibiting formation of 5-HT2B agonists and methods of using same” (ZOGENIX INTERNATIONAL LIMITED, priority 2016, dated 2021).
Several values for one entry are separate records, joined by “and”; a condition that tells them apart may be missing. Equal values may be shown once.

What was measured:
[1] = biological target: 5-HT2B receptor (Homo sapiens, UniProt P41595); details: cited from earlier work
[2] = Drug-drug interaction clinical trial: fenfluramine co-administered with stiripentol, clobazam and valproate; plasma levels of fenfluramine and norfenfluramine; details: healthy volunteers; for Exposure impact: ratio of AUC0-72 for combination treatment to AUC0-72 for fenfluramine alone: single dose, fenfluramine 0.8 mg/kg with stiripentol 3,500 mg, clobazam 20 mg, valproate 25 mg/kg (≤1,500 mg), blood plasma, interim results
Protocol: The effects of co-administration of a three-drug regimen on fenfluramine metabolism and resultant plasma levels of fenfluramine and its metabolite norfenfluramine was assessed in a clinical trial using in healthy volunteers.
A randomized, open-label, single-dose, 3-way cross-over study was designed to examine the effects of co-administering fenfluramine with a three-drug cocktail consisting of stiripentol, clobazam, and valproate. Each patient was treated sequentially with three treatment regimens, each being administered individually, according to six different treatment sequences which were assigned randomly.
Subjects were recruited from an existing pool of volunteers or through direct advertising, Prospects who had participated in a study within three months prior of dosing were excluded from the pool of potential participants. A full medical history for the preceding 12-month period was obtained from each subject's primary care physician and evaluated. Patients were then assessed according to the inclusion and exclusion criteria shown below. Persons chosen as study participants underwent a screening visit prior to participation to reassess and confirm compliance with those criteria.
AUC0-72 values were calculated based on blood plasma levels of fenfluramine and norfenfluramine levels. Exposure impact is expressed as a ratio of AUC0-72 values determined for patients receiving the combination treatment to the AUC0-72 values determined for patients receiving fenfluramine alone.

[3] = tested on: CYP3A4; details: cited from earlier work
[4] = biological target: CYP2D6 (Homo sapiens, UniProt P10635); details: cited from earlier work
Sequence of CYP2D6 (P10635 whole entry): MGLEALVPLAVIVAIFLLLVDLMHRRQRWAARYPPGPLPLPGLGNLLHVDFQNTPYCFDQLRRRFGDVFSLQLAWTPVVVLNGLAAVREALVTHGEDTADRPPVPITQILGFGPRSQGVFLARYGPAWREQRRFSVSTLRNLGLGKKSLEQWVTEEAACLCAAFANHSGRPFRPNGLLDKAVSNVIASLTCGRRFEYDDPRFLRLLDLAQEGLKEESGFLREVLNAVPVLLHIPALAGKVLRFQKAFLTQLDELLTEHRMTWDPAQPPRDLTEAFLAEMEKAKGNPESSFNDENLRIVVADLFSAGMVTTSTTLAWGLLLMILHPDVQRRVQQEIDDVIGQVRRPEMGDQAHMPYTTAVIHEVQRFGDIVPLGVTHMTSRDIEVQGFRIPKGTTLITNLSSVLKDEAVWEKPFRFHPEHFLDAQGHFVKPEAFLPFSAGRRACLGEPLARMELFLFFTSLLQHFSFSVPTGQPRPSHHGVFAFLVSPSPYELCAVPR

[5] = biological target: CYP3A4 (Homo sapiens, UniProt P08684); details: cited from earlier work
Sequence of CYP3A4 (Homo sapiens, UniProt P08684) (P08684 whole entry): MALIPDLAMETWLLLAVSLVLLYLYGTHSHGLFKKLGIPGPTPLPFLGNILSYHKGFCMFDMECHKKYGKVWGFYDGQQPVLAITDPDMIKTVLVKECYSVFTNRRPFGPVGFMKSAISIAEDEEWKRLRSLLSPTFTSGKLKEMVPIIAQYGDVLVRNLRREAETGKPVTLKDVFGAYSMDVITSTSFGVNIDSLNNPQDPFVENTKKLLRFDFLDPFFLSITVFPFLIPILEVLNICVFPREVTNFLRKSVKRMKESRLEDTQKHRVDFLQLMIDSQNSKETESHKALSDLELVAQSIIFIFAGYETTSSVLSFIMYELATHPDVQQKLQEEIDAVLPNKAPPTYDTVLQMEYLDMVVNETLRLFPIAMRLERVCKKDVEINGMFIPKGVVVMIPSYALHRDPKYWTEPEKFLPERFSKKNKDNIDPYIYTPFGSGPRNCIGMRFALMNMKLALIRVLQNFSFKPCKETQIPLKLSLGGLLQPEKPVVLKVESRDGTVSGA

[6] = biological target: CYP1A2 (Homo sapiens, UniProt P05177); details: cited from earlier work
Sequence of CYP1A2 (P05177 whole entry): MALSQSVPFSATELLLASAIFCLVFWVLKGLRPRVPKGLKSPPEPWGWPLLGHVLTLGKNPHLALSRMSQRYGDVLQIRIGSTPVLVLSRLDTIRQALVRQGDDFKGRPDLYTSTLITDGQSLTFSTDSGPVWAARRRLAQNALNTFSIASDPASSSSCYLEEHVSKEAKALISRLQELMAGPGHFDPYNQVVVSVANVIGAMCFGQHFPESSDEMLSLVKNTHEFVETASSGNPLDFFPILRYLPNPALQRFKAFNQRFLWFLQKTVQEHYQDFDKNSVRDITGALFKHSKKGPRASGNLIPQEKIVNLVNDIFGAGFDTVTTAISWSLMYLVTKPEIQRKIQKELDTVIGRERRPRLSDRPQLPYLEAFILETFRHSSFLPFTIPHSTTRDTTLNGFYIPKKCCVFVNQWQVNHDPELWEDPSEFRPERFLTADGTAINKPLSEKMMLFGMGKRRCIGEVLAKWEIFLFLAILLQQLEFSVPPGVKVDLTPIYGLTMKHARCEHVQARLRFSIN

[7] = biological target: CYP2C19 (Homo sapiens, UniProt P33261); details: cited from earlier work
Sequence of CYP2C19 (P33261 whole entry): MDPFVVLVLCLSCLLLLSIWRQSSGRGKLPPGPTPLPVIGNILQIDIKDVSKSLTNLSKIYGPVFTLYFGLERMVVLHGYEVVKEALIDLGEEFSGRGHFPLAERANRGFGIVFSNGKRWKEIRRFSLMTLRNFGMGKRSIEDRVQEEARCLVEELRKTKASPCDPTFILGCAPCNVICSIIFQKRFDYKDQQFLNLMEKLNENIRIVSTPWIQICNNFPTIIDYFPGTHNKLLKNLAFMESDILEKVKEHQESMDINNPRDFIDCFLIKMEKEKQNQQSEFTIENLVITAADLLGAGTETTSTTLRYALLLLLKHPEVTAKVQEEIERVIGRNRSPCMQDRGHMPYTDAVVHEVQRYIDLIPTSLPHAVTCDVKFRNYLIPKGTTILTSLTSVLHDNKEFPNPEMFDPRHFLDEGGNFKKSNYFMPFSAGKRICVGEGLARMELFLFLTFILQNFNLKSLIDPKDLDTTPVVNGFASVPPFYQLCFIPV

[8] = biological target: CYP2C9 (Homo sapiens, UniProt P11712); details: cited from earlier work
Sequence of CYP2C9 (P11712 whole entry): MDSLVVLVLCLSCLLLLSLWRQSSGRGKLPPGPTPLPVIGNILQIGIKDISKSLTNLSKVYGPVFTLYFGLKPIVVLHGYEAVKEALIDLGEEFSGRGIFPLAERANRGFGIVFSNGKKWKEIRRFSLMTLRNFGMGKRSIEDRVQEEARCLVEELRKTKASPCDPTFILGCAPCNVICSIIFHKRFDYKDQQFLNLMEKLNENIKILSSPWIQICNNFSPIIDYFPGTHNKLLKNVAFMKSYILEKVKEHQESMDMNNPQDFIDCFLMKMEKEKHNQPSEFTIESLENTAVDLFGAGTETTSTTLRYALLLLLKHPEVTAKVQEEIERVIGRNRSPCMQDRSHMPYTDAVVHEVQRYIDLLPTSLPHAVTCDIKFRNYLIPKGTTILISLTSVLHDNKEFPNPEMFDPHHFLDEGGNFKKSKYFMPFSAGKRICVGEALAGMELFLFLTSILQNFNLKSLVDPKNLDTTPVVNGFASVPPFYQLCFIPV

[9] = biological target: T1, CYP2C8 (Homo sapiens, UniProt P10632); details: cited from earlier work
T1 sequence (P10632 1-490): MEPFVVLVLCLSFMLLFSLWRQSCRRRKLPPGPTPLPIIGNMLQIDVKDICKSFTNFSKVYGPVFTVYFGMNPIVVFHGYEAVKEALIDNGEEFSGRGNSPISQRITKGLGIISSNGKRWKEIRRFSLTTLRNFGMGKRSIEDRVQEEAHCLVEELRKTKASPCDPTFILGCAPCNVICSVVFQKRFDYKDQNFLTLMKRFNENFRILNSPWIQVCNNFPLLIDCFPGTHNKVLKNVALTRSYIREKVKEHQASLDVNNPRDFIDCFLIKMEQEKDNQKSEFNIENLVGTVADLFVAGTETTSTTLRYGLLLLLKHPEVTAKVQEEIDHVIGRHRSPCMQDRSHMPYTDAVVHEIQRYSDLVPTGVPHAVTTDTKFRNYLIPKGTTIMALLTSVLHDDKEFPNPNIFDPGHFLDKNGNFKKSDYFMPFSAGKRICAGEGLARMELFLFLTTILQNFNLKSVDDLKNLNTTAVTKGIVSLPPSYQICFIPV

[10] = biological target: T2, CYP2B6 (Homo sapiens, UniProt P20813); details: cited from earlier work
T2 sequence (P20813 1-491): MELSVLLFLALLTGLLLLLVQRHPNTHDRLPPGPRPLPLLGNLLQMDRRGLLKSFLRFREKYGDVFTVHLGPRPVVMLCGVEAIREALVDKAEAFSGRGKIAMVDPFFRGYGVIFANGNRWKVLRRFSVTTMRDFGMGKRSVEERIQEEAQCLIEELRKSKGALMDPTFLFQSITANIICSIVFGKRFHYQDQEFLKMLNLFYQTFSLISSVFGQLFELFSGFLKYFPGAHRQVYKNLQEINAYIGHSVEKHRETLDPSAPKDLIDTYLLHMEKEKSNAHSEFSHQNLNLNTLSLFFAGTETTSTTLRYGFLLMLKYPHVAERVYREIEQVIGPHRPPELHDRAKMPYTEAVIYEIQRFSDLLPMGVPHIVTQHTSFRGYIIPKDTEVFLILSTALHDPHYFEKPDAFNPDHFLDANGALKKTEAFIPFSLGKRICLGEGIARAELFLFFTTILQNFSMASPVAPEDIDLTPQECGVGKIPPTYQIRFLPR

Sequence of 5-HT2B receptor (P41595 whole entry): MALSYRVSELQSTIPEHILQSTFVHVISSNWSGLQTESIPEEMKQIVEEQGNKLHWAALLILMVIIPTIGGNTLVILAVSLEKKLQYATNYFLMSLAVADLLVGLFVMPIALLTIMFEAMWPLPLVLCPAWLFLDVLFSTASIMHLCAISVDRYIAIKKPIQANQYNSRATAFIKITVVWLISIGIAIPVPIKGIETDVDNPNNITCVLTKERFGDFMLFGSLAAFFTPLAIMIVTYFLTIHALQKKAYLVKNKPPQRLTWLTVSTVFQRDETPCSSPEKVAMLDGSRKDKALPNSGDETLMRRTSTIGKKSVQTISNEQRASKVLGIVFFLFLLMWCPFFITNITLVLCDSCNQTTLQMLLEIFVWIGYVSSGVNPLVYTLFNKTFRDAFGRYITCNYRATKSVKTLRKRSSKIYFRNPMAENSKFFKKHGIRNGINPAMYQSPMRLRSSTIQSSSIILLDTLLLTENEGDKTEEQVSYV

SMILES | Agonistic effect on 5-HT2B receptor [1] | Exposure impact: ratio of AUC0-72 for combination treatment to AUC0-72 for fenfluramine alone [2] | Inhibition of CYP2D6 [4] | Inhibition of CYP3A4 [5] | Inhibition of CYP1A2 [6] | Inhibition of CYP2C19 [7] | Inhibition of CYP2C9 [8] | further results
CC(N)Cc1cccc(C(F)(F)F)c1 (stereo not drawn) [norfenfluramine] | particularly potent 5-HT2B agonist | 0.59 | – | – | – | – | – | Reduction of patient exposure to norfenfluramine ([2]; fenfluramine co-administered with stiripentol, clobazam and valproate): ~30%
CN1C(=O)CC(=O)N(c2ccccc2)c2cc(Cl)ccc21 [clobazam] | – | – | strongly inhibits | – | – | – | – | Induction of CYP3A4 [3]: weak inducer
CCNC(C)Cc1cccc(C(F)(F)F)c1 (racemic) [fenfluramine, 3-trifluoromethyl-N-ethylamphetamine] | does not have significant agonistic effects | 1.66 and 1.67 | – | – | – | – | – | –
C=C(C)[C@@H]1CCC(C)=C[C@H]1c1c(O)cc(CCCCC)cc1O [cannabidiol] | – | – | inhibitory effects | potent inhibitor | potent inhibitor of CYP1A2 (time-dependent effect) | inhibitory effects | inhibitory effects | Inhibition of CYP2C8 [9]: inhibitory effects; Inhibition of CYP2B6 [10]: potent inhibitor
CC(C)(C)C(O)/C=C/c1ccc2c(c1)OCO2 (stereo not drawn) [stiripentol] | – | – | – | strongly inhibits | strongly inhibits | less strongly | less strongly | –
